± gives the expanded uncertainty stated by the source.
Assay: molar heat capacity at constant pressure
Conditions: 101.33 kPa, Crystal, Small (less than 1 g) adiabatic calorimetry

O=S(=O)([O-])[O-].[Cu+2].[Cu+2].[Cu+2].[OH-].[OH-].[OH-].[OH-] [copper(II) tetrahydroxide sulfate]
molar heat capacity at constant pressure (144.68 K): 141.3 ± 0.77 J/K/mol
molar heat capacity at constant pressure (145.22 K): 142.14 ± 0.77 J/K/mol
molar heat capacity at constant pressure (147.87 K): 144.34 ± 0.78 J/K/mol
molar heat capacity at constant pressure (148.42 K): 144.91 ± 0.78 J/K/mol
molar heat capacity at constant pressure (150 K): 146.3 ± 0.8 J/K/mol
molar heat capacity at constant pressure (151.08 K): 147.15 ± 0.79 J/K/mol
molar heat capacity at constant pressure (151.63 K): 147.79 ± 0.79 J/K/mol
molar heat capacity at constant pressure (153.75 K): 149.17 ± 0.8 J/K/mol
molar heat capacity at constant pressure (154.85 K): 150.6 ± 0.8 J/K/mol
molar heat capacity at constant pressure (155.89 K): 151.01 ± 0.81 J/K/mol
molar heat capacity at constant pressure (158.03 K): 152.89 ± 0.81 J/K/mol
molar heat capacity at constant pressure (158.08 K): 153.14 ± 0.81 J/K/mol
molar heat capacity at constant pressure (160 K): 154.8 ± 0.8 J/K/mol
molar heat capacity at constant pressure (160.17 K): 154.93 ± 0.82 J/K/mol
molar heat capacity at constant pressure (161.31 K): 155.76 ± 0.82 J/K/mol
molar heat capacity at constant pressure (162.32 K): 156.42 ± 0.83 J/K/mol
molar heat capacity at constant pressure (164.47 K): 158.12 ± 0.83 J/K/mol
molar heat capacity at constant pressure (164.54 K): 158.38 ± 0.83 J/K/mol
molar heat capacity at constant pressure (166.62 K): 159.83 ± 0.84 J/K/mol
molar heat capacity at constant pressure (167.79 K): 161.29 ± 0.84 J/K/mol
molar heat capacity at constant pressure (168.77 K): 161.72 ± 0.85 J/K/mol
molar heat capacity at constant pressure (170 K): 162.9 ± 0.9 J/K/mol
molar heat capacity at constant pressure (170.92 K): 163.42 ± 0.85 J/K/mol
molar heat capacity at constant pressure (171.04 K): 163.63 ± 0.85 J/K/mol
molar heat capacity at constant pressure (173.08 K): 165.15 ± 0.86 J/K/mol
molar heat capacity at constant pressure (174.3 K): 166.52 ± 0.87 J/K/mol
molar heat capacity at constant pressure (175.23 K): 166.71 ± 0.87 J/K/mol
molar heat capacity at constant pressure (177.4 K): 168.6 ± 0.87 J/K/mol
molar heat capacity at constant pressure (177.57 K): 168.98 ± 0.88 J/K/mol
molar heat capacity at constant pressure (179.56 K): 169.93 ± 0.88 J/K/mol
molar heat capacity at constant pressure (180 K): 170.9 ± 0.9 J/K/mol
molar heat capacity at constant pressure (180.86 K): 171.6 ± 0.89 J/K/mol
molar heat capacity at constant pressure (181.72 K): 171.53 ± 0.89 J/K/mol
molar heat capacity at constant pressure (183.88 K): 173.5 ± 0.89 J/K/mol
molar heat capacity at constant pressure (184.14 K): 174.07 ± 0.9 J/K/mol
molar heat capacity at constant pressure (186.04 K): 174.91 ± 0.9 J/K/mol
molar heat capacity at constant pressure (187.43 K): 176.58 ± 0.9 J/K/mol
molar heat capacity at constant pressure (188.2 K): 176.89 ± 0.91 J/K/mol
molar heat capacity at constant pressure (190 K): 178.5 ± 0.9 J/K/mol
molar heat capacity at constant pressure (190.37 K): 178.59 ± 0.92 J/K/mol
molar heat capacity at constant pressure (190.73 K): 179 ± 0.92 J/K/mol
molar heat capacity at constant pressure (192.53 K): 179.84 ± 0.92 J/K/mol
molar heat capacity at constant pressure (194.03 K): 181.5 ± 0.93 J/K/mol
molar heat capacity at constant pressure (194.69 K): 181.95 ± 0.93 J/K/mol
molar heat capacity at constant pressure (196.86 K): 183.62 ± 0.93 J/K/mol
molar heat capacity at constant pressure (197.33 K): 184.05 ± 0.94 J/K/mol
molar heat capacity at constant pressure (199.04 K): 185.07 ± 0.94 J/K/mol
molar heat capacity at constant pressure (200 K): 185.9 ± 0.9 J/K/mol
molar heat capacity at constant pressure (200.64 K): 186.38 ± 0.95 J/K/mol
molar heat capacity at constant pressure (201.21 K): 186.11 ± 0.94 J/K/mol
molar heat capacity at constant pressure (203.39 K): 188.25 ± 0.95 J/K/mol
molar heat capacity at constant pressure (203.96 K): 188.7 ± 0.95 J/K/mol
molar heat capacity at constant pressure (205.57 K): 189.66 ± 0.96 J/K/mol
molar heat capacity at constant pressure (207.29 K): 191 ± 0.96 J/K/mol
molar heat capacity at constant pressure (207.76 K): 190.53 ± 0.96 J/K/mol
molar heat capacity at constant pressure (209.94 K): 192.52 ± 0.97 J/K/mol
molar heat capacity at constant pressure (210 K): 192.8 ± 1 J/K/mol
molar heat capacity at constant pressure (210.62 K): 193.2 ± 0.97 J/K/mol
molar heat capacity at constant pressure (212.16 K): 193.78 ± 0.98 J/K/mol
molar heat capacity at constant pressure (213.96 K): 195.29 ± 0.98 J/K/mol
molar heat capacity at constant pressure (214.35 K): 195.47 ± 0.98 J/K/mol
molar heat capacity at constant pressure (216.54 K): 197.08 ± 0.99 J/K/mol
molar heat capacity at constant pressure (217.3 K): 197.61 ± 0.99 J/K/mol
molar heat capacity at constant pressure (218.74 K): 198.53 ± 0.99 J/K/mol
molar heat capacity at constant pressure (220 K): 199.5 ± 1 J/K/mol
molar heat capacity at constant pressure (220.63 K): 199.85 ± 1 J/K/mol
molar heat capacity at constant pressure (220.93 K): 199.41 ± 1 J/K/mol
molar heat capacity at constant pressure (223.12 K): 200.77 ± 1 J/K/mol
molar heat capacity at constant pressure (223.97 K): 202.1 ± 1 J/K/mol
molar heat capacity at constant pressure (225.3 K): 202.74 ± 1 J/K/mol
molar heat capacity at constant pressure (227.29 K): 204.34 ± 1 J/K/mol
molar heat capacity at constant pressure (227.48 K): 203.96 ± 1 J/K/mol
molar heat capacity at constant pressure (229.65 K): 205.76 ± 1 J/K/mol
molar heat capacity at constant pressure (230 K): 206.1 ± 1 J/K/mol
molar heat capacity at constant pressure (230.62 K): 206.56 ± 1 J/K/mol
molar heat capacity at constant pressure (231.82 K): 207.32 ± 1 J/K/mol
molar heat capacity at constant pressure (233.94 K): 208.88 ± 1 J/K/mol
molar heat capacity at constant pressure (233.99 K): 208.88 ± 1 J/K/mol
molar heat capacity at constant pressure (236.16 K): 210.12 ± 1 J/K/mol
molar heat capacity at constant pressure (237.24 K): 210.9 ± 1 J/K/mol
molar heat capacity at constant pressure (238.32 K): 211.49 ± 1 J/K/mol
molar heat capacity at constant pressure (240 K): 212.7 ± 1.1 J/K/mol
molar heat capacity at constant pressure (240.47 K): 213.05 ± 1.1 J/K/mol
molar heat capacity at constant pressure (240.54 K): 213.1 ± 1.1 J/K/mol
molar heat capacity at constant pressure (242.63 K): 214.29 ± 1.1 J/K/mol
molar heat capacity at constant pressure (243.84 K): 215.04 ± 1.1 J/K/mol
molar heat capacity at constant pressure (244.78 K): 215.47 ± 1.1 J/K/mol
molar heat capacity at constant pressure (246.91 K): 216.48 ± 1.1 J/K/mol
molar heat capacity at constant pressure (247.12 K): 217.09 ± 1.1 J/K/mol
molar heat capacity at constant pressure (249.05 K): 217.96 ± 1.1 J/K/mol
molar heat capacity at constant pressure (250 K): 218.9 ± 1.1 J/K/mol
molar heat capacity at constant pressure (250.39 K): 219.06 ± 1.1 J/K/mol
molar heat capacity at constant pressure (251.18 K): 219.63 ± 1.1 J/K/mol
molar heat capacity at constant pressure (253.31 K): 221.05 ± 1.1 J/K/mol
molar heat capacity at constant pressure (253.64 K): 221.26 ± 1.1 J/K/mol
molar heat capacity at constant pressure (255.43 K): 222.37 ± 1.1 J/K/mol
molar heat capacity at constant pressure (256.89 K): 223.31 ± 1.1 J/K/mol
molar heat capacity at constant pressure (257.55 K): 223.64 ± 1.1 J/K/mol
molar heat capacity at constant pressure (259.67 K): 224.86 ± 1.1 J/K/mol
molar heat capacity at constant pressure (260 K): 225.1 ± 1.1 J/K/mol
molar heat capacity at constant pressure (260.12 K): 225.23 ± 1.1 J/K/mol
molar heat capacity at constant pressure (261.78 K): 226.04 ± 1.1 J/K/mol
molar heat capacity at constant pressure (263.34 K): 227.07 ± 1.1 J/K/mol
molar heat capacity at constant pressure (263.89 K): 227.38 ± 1.1 J/K/mol
molar heat capacity at constant pressure (265.99 K): 228.04 ± 1.1 J/K/mol
molar heat capacity at constant pressure (266.52 K): 229.07 ± 1.1 J/K/mol
molar heat capacity at constant pressure (268.1 K): 229.52 ± 1.1 J/K/mol
molar heat capacity at constant pressure (269.68 K): 230.88 ± 1.1 J/K/mol
molar heat capacity at constant pressure (270 K): 231.1 ± 1.1 J/K/mol
molar heat capacity at constant pressure (270.18 K): 231.01 ± 1.1 J/K/mol
molar heat capacity at constant pressure (272.26 K): 232.16 ± 1.1 J/K/mol
molar heat capacity at constant pressure (272.81 K): 232.32 ± 1.1 J/K/mol
molar heat capacity at constant pressure (273.15 K): 232.9 ± 1.1 J/K/mol
molar heat capacity at constant pressure (274.34 K): 233.42 ± 1.1 J/K/mol
molar heat capacity at constant pressure (275.92 K): 234.35 ± 1.1 J/K/mol
molar heat capacity at constant pressure (276.41 K): 234 ± 1.1 J/K/mol
molar heat capacity at constant pressure (278.48 K): 235.58 ± 1.1 J/K/mol
molar heat capacity at constant pressure (278.99 K): 236.21 ± 1.1 J/K/mol
molar heat capacity at constant pressure (280 K): 236.7 ± 1.1 J/K/mol
molar heat capacity at constant pressure (280.47 K): 237.16 ± 1.1 J/K/mol
molar heat capacity at constant pressure (282.03 K): 237.88 ± 1.2 J/K/mol
molar heat capacity at constant pressure (282.51 K): 238.07 ± 1.2 J/K/mol
molar heat capacity at constant pressure (284.55 K): 239.1 ± 1.2 J/K/mol
molar heat capacity at constant pressure (284.97 K): 239.95 ± 1.2 J/K/mol
molar heat capacity at constant pressure (286.57 K): 240.28 ± 1.2 J/K/mol
molar heat capacity at constant pressure (287.96 K): 241.21 ± 1.2 J/K/mol
molar heat capacity at constant pressure (288.59 K): 241.63 ± 1.2 J/K/mol
molar heat capacity at constant pressure (290 K): 242.2 ± 1.2 J/K/mol
molar heat capacity at constant pressure (290.6 K): 242.66 ± 1.2 J/K/mol
molar heat capacity at constant pressure (290.92 K): 242.32 ± 1.2 J/K/mol
molar heat capacity at constant pressure (292.61 K): 243.54 ± 1.2 J/K/mol
molar heat capacity at constant pressure (293.88 K): 243.77 ± 1.2 J/K/mol
molar heat capacity at constant pressure (294.6 K): 244.61 ± 1.2 J/K/mol
molar heat capacity at constant pressure (296.58 K): 245.63 ± 1.2 J/K/mol
molar heat capacity at constant pressure (296.81 K): 245.8 ± 1.2 J/K/mol
molar heat capacity at constant pressure (298.15 K): 246.6 ± 1.2 J/K/mol
molar heat capacity at constant pressure (298.56 K): 246.66 ± 1.2 J/K/mol
molar heat capacity at constant pressure (299.68 K): 247.51 ± 1.2 J/K/mol
molar heat capacity at constant pressure (300 K): 247.6 ± 1.2 J/K/mol
molar heat capacity at constant pressure (300.53 K): 247.64 ± 1.2 J/K/mol
molar heat capacity at constant pressure (302.49 K): 248.72 ± 1.2 J/K/mol
molar heat capacity at constant pressure (302.54 K): 249.04 ± 1.2 J/K/mol
molar heat capacity at constant pressure (304.44 K): 249.67 ± 1.2 J/K/mol
molar heat capacity at constant pressure (305.37 K): 250.52 ± 1.2 J/K/mol
molar heat capacity at constant pressure (306.39 K): 250.6 ± 1.2 J/K/mol
molar heat capacity at constant pressure (308.18 K): 251.84 ± 1.2 J/K/mol
molar heat capacity at constant pressure (308.34 K): 251.49 ± 1.2 J/K/mol
molar heat capacity at constant pressure (310 K): 252.8 ± 1.2 J/K/mol
molar heat capacity at constant pressure (310.27 K): 252.37 ± 1.2 J/K/mol
molar heat capacity at constant pressure (310.97 K): 253.24 ± 1.2 J/K/mol
molar heat capacity at constant pressure (312.09 K): 253.75 ± 1.2 J/K/mol
molar heat capacity at constant pressure (313.74 K): 254.51 ± 1.2 J/K/mol
molar heat capacity at constant pressure (314.01 K): 254.23 ± 1.2 J/K/mol
molar heat capacity at constant pressure (315.94 K): 255.03 ± 1.2 J/K/mol
molar heat capacity at constant pressure (316.5 K): 255.82 ± 1.2 J/K/mol
molar heat capacity at constant pressure (317.86 K): 255.92 ± 1.2 J/K/mol
molar heat capacity at constant pressure (319.23 K): 257.03 ± 1.2 J/K/mol
molar heat capacity at constant pressure (319.77 K): 256.66 ± 1.2 J/K/mol
molar heat capacity at constant pressure (320 K): 257.4 ± 1.2 J/K/mol
molar heat capacity at constant pressure (321.68 K): 257.57 ± 1.2 J/K/mol
molar heat capacity at constant pressure (321.95 K): 258.16 ± 1.2 J/K/mol
molar heat capacity at constant pressure (323.58 K): 258.37 ± 1.2 J/K/mol

— the NIST ThermoML archive (doi:10.1021/je400130b)
